The values that follow come from patent US7875270B2, “Treatment solution and method for preventing posterior capsular opacification by selectively inducing detachment and/or death of lens epithelial cells” (Abbott Medical Optics Inc., priority 2002, dated 2011).

The subject of series [1] is human LECs-CCCs freshly removed from cataract operation. Put plainly: In situ treatment of LECs attached to capsulorhexis lens capsule (LECs-CCC). Format: cell-based. Here is the method:
The in situ effects of a treatment solution comprising dihydrochlorothiazide (DHCT) (a cotransport interference agent from the group of the thiazide and related diuretics) and hyperosmotic NaCl on human LECs is examined. The treatment is tested on LECs that are still attached to a continuous curvilinear capsulorhexis lens capsule (LECs-CCC) which are freshly removed from a human cataract operation.
The LECs-CCCs are obtained from a cataract operation and immediately put in freshly prepared Eagle's Minimum Essential Medium (MEM) supplemented with 2 mM glutamine, 25 mmol/L Hepes (pH 7.4) without foetal cow serum (FCS) and is transferred to the laboratory for evaluation. Viable LECs are identified by staining the LECs-CCCs for five minutes with 0.2% Trypan Blue. The sheets containing more than 70% viable LECs are used to assess the efficacy of the treatment. […]
In the first step, a hyperosmotic solution of NaCl is prepared by making a stock solution of 2 M NaCl by adding 58.44 g NaCl (supplied by Sigma Chemical Co., U.S.) to 500 ml dH2O. The desired concentration of osmotic NaCl is prepared by diluting the 2M stock solution with dH2O. For example, to make a hyperosmotic solution of 170 mM NaCl, the 2M NaCl stock solution was diluted with dH2O at a ratio of […]. To make a hyperosmotic solution of 200 mM NaCl, the 2M NaCl stock solution is diluted with dH2O at a ratio of 1 to 9. Final osmolarities (mOsm/kg/H2O) are determined by a freezing point depression method using cryoscopic osmometry.
In the second step, DHCT stock solution is made by adding 25 mg DHCT to 1 ml dH2O. […]
The treatment is applied by exposing the LECs-CCCs for five minutes in a small petri dish containing the treatment solution. The treatment solution is removed after five minutes exposure by a syringe and then the fresh PBS is added in the petri dish to wash away the treatment solution. The LECs-CCCs are washed three times. The changes of the LECS are monitored under a microscope. Microscope photographs are taken at 0, 2 and 5 minutes and after wash.

The next series relates to in vivo rabbit eyes. As to the kind of experiment: In vivo prevention of PCO after cataract operation in rabbit eyes. The settings on record: DHCT and hyperosmotic NaCl. The method, then:
The experimental group includes sixteen rabbit eyes and the control group includes four rabbit eyes. A sham cataract operation is performed on the control animals. The therapy is introduced to the others.
The pupil of each rabbit eye is preoperatively dilated with topical G Phenylephrine 10% (Alcon Labs., Inc., China) and G Cyclopentolate 1% (Bausch & Lomb Pharm., Inc., USA) three times in one hour. The rabbits are anesthetized with ketamine hydrochloride (5 mg kg-1) and xylazine hydrochloride (2 mg kg-1) and placed on an operating table. A topical anesthetic (Dieaine hydrochloride 1%) is used every five minutes on two occasions. A wire lid speculum is placed to hold the eyelids open.
A 3.2 mm scleral tunnel incision into the eye is formed at the temporal limbus. The anterior chamber is maintained with viscoelastic substances and a 4-5 mm diameter continuous curvilinear capsularhexis (CCC) is made on the anterior surface of the lens to open its bag. The treatment solution is first introduced in the LECs by hydrodissection. This ensures that the treatment fluid immediately reaches under the entire anterior capsule/LECs. This process allows for (i) separation of the lens cortex from the capsule and lens epithelium, making removal of the lens cortex easier at a later stage of the operation and (ii) the LECs to be exposed to the treatment for enough time (more than five minutes in total time).
The crystalline lens is then removed using phacoemulsification (Universal II, Alcon Labs., Inc., China). The remaining cortex is aspirated thoroughly and removed as completely as possible to expose the LECs. The lens capsular bag is then partially filed with viscoelastic material in order to maintain its shape. The viscoelastic material should not cover the LECs when the treatment solution is applied.
The treatment is spread over the inner surface of the anterior capsular bag (where the LECs attach). The anterior capsular is continuously filled by using a syringe with a bent needle. Care is taken not to over flow the bag. After the treatment solution covered the capsule bag, it is left for five minutes and then removed using a syringe.
In a few cases, IOLs are inserted. […] At the same time, the incision is enlarged to 6.0 mm and a posterior ocular lens (IOLs) (poly-methyl methacrylate, PMMA) with a 6.5 mm optic is prepared and placed into the capsular bag.
The wound is closed with or without suture.
At the completion of the surgical procedure, each rabbit eye receives subconjunctival dexamethasone (0.25 ml) and gentamicin (0.25 ml). Postoperatively, atropine sulphate 1% ophthalmic solution and neomycin sulphate-polymyxin sulphate-dexamethasone ophthalmic ointment are administered twice daily for three weeks.
The animals are evaluated for three weeks and ten weeks. […] All rabbits are evaluated by slitlamp and scored for ocular responses at 1 day and at 1, 2 and 3 weeks. (See FIG. 17, Table 1.) Three and ten weeks after surgery, the animals are anesthetized using a 2 ml intramuscular injection of 11:1 mixture of ketamine hydrochloride and xylazine 20 mg/ml and then killed with a 2 ml intravenous injection of sodium pentobarbital.
The eye globes are enucleated (some of them fixed in neutral buffered formalin 10% solution for 24 hours) and are bisected coronally just anterior to the equator. Gross examination is performed to assess. PCO development. Photographs are taken from behind (Miyake-Apple posterior photographic technique) by using a digital camera fitted to an operating microscope (Leica/Wild MZ-8, Vashaw Scientific, Inc.).
The extent and severity of PCO is scored (see FIG. 17, Table 1) according to methods reported in the literature. The lens capsules are then fixed and evaluated under a microscope (Olumpus, Optical Co. Ltd.) and photographed with a digital camera.

For the compound `NS(=O)(=O)c1cc2c(cc1Cl)NCNS2(=O)=O` [DHCT, dihydrochlorothiazide], in series [1] (170 or 200 mM NaCl and 200 or 300 μm DHCT, pH ±7.8, five minutes), the “LEC changes after exposure” value was “shrink and gradually large gaps form between the cells. The shrinking cells then gradually round up and burst”. In addition, the “living LECs after wash” value in series [1] (200 μm DHCT and hyperosmotic ≦200 mM NaCl) was “no living cells can be observed”. Besides, the “Soemmering's ring” value with in vivo rabbit eyes is listed as “Most eyes did develop some degree of Soemmering's ring”. Besides, in the series with in vivo rabbit eyes (3 and 10 weeks post-treatment), the “intraocular inflammatory reaction and deposits” value was “minimal intraocular inflammatory reaction and deposits on the lens capsule surface”. The “development of central PCO (CPCO) and peripheral PCO (PPCO)” value with in vivo rabbit eyes (three or ten weeks post-treatment) is “No central PCO(CPCO) (the area within the pupillary area) and peripheral PCO (PPCO) (within 6-6.5 mm outside the pupillary area) is found to have developed”. In the series on in vivo rabbit eyes (three weeks after surgery, no IOLs insertion), the “lens epithelial cells in pupil area (phase contrast)” value is recorded as “no remaining lens epithelial cells”.
In the case of gramicidin, in series [1] (10 or 100 μm gramicidin and PBS), the “living LECs after rinsing” value is given as “no living cells remain”. Moreover, the “LEC changes after exposure” value in series [1] (10 or 100 μm gramicidin and PBS, five minutes) is “shrink and large gaps gradually form between the cells. The shrinking cells then gradually round up and burst”.
